Measured values: PubChem BioAssay AID1963841 (Molecular Pharmacology Branch, DTP, NCI, 2024)

Test system: 439559-082-T-J2-PDC spheroid viability
Experiment: Anticancer human tumor 439559-082-T-J2-PDC patient-derived colon adenocarcinoma cell line growth inhibition [POLQ]
Settings: spheroids with HUVEC and MSC; for IC50: curve of first compound; for viability, T/C: stronger effect = lower value
Procedure, shortened: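 Three-cell-type spheroids modelling solid tumor plus stroma served as the readout system; POL inhibitors were tested individually and in combination, concentration ranges set by clinical Cmax where known.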
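Note: spheroids exposed to compounds for seven days before readout.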
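Throughout, for viability, T/C: 100% = DMSO vehicle control viability.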

Structure (SMILES): CC1COCCN1c1cc(C2(O)CC3CCC(C2)O3)c2cnn(-c3ccn[nH]3)c2n1 (configuration not stated) + Nc1ccc(C#CCN(C(=O)Cc2ncc(C(F)(F)F)cc2C(F)(F)F)c2ccc(F)cc2)nn1
- IC50 (second compound 0.0316 µM): > 10 µM
- IC50 (second compound 0.1 µM): > 10 µM
- IC50 (second compound 0.316 µM): > 10 µM
- IC50 (second compound 1 µM): > 10 µM
- IC50 (second compound 3.16 µM): > 10 µM
- IC50 (second compound 10 µM): > 10 µM
- viability, T/C (second compound 0.0316 µM, first compound 0.0316 µM): 97.8%
- viability, T/C (second compound 0.0316 µM, first compound 0.1 µM): 88.4%
- viability, T/C (second compound 0.0316 µM, first compound 0.316 µM): 77%
- viability, T/C (second compound 0.0316 µM, first compound 1 µM): 62.4%
- viability, T/C (second compound 0.0316 µM, first compound 3.16 µM): 59.4%
- viability, T/C (second compound 0.0316 µM, first compound 10 µM): 51.4%
- viability, T/C (second compound 0.1 µM, first compound 0.0316 µM): 102%
- viability, T/C (second compound 0.1 µM, first compound 0.1 µM): 85.8%
- viability, T/C (second compound 0.1 µM, first compound 0.316 µM): 79.4%
- viability, T/C (second compound 0.1 µM, first compound 1 µM): 60.3%
- viability, T/C (second compound 0.1 µM, first compound 3.16 µM): 56.9%
- viability, T/C (second compound 0.1 µM, first compound 10 µM): 54.4%
- viability, T/C (second compound 0.316 µM, first compound 0.0316 µM): 126%
- viability, T/C (second compound 0.316 µM, first compound 0.1 µM): 73.7%
- viability, T/C (second compound 0.316 µM, first compound 0.316 µM): 66.8%
- viability, T/C (second compound 0.316 µM, first compound 1 µM): 60.1%
- viability, T/C (second compound 0.316 µM, first compound 3.16 µM): 59.2%
- viability, T/C (second compound 0.316 µM, first compound 10 µM): 50.2%
- viability, T/C (second compound 1 µM, first compound 0.0316 µM): 97.1%
- viability, T/C (second compound 1 µM, first compound 0.1 µM): 100%
- viability, T/C (second compound 1 µM, first compound 0.316 µM): 78.2%
- viability, T/C (second compound 1 µM, first compound 1 µM): 66.7%
- viability, T/C (second compound 1 µM, first compound 3.16 µM): 60.6%
- viability, T/C (second compound 1 µM, first compound 10 µM): 55%
- viability, T/C (second compound 3.16 µM, first compound 0.0316 µM): 82.5%
- viability, T/C (second compound 3.16 µM, first compound 0.1 µM): 80.5%
- viability, T/C (second compound 3.16 µM, first compound 0.316 µM): 82.3%
- viability, T/C (second compound 3.16 µM, first compound 1 µM): 60.6%
- viability, T/C (second compound 3.16 µM, first compound 3.16 µM): 59.1%
- viability, T/C (second compound 3.16 µM, first compound 10 µM): 58%
- viability, T/C (second compound 10 µM, first compound 0.0316 µM): 91.7%
- viability, T/C (second compound 10 µM, first compound 0.1 µM): 80.7%
- viability, T/C (second compound 10 µM, first compound 0.316 µM): 66.9%
- viability, T/C (second compound 10 µM, first compound 1 µM): 53.1%
- viability, T/C (second compound 10 µM, first compound 3.16 µM): 55.3%
- viability, T/C (second compound 10 µM, first compound 10 µM): 48.6%
